# Biological target: T1, full-length human PKCι (Homo sapiens, UniProt P41743)
# T1 construct: Recombinant, full-length human PKCι expressed in Sf21 insect cells is also commercially available; purchased EMD Millipore; host or cells: Sf21 insect cells (baculovirus)
# T1 sequence (P41743 1-596): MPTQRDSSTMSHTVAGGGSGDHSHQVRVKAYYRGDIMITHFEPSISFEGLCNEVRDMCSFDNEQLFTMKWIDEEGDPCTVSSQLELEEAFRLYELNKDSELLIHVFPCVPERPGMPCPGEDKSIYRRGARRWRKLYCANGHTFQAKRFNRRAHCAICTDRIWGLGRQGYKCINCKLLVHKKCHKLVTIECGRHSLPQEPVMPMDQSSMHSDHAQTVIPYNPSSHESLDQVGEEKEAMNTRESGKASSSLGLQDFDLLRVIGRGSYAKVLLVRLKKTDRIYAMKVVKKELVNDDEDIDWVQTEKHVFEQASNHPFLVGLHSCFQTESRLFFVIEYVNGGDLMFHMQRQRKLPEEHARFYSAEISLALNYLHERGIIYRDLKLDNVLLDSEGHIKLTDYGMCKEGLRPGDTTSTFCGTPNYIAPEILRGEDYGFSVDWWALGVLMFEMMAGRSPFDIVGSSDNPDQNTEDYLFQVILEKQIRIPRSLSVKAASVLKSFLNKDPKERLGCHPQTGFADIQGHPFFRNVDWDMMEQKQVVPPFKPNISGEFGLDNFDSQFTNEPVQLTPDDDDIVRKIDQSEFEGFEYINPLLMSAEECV
# Assay: PKCι IC50 IMAP fluorescence polarisation assay, full-length enzyme, 150 μM ATP
# Type: biochemical
# Conditions: read-out: IC50 in IMAP assay against full length PKCi at 150 μM ATP
# Procedure, shortened: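 IMAP fluorescence polarisation kinase assay: 15 pM baculovirus-expressed human PKCiota with 100 nM FAM-pseudosubstrate peptide and 150 μM ATP, 1 h at 25 °C. IMAP detection reagent then 2 h at 25 °C before FP measurement. Inhibition referenced to no-compound and no-enzyme controls for IC50 fitting.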
row,SMILES,IC50 [nM]
1,"c1ncc(-c2cc3c(-c4nc(N5CCNCC5)c5c(C6CCC6)cncc5n4)ccnc3[nH]2)cn1 [Example 131, 5-Cyclobutyl-4-piperazin-1-yl-2-(2-pyrimidin-5-yl-1H-pyrrolo[2,3-b]pyridin-4-yl)-pyrido[3,4-d]pyrimidine]",< 100
2,Cn1cc(-c2cc3c(-c4nc(N5CCNCC5)c5c(C6CCC6)cncc5n4)ccnc3[nH]2)cn1 [Example 132],< 100
3,"CCSc1cc2c(-c3nc(N4CCNCC4)c4c(C5CCC5)cncc4n3)ccnc2[nH]1 [Example 133, 5-Cyclobutyl-2-(2-ethylsulfanyl-1H-pyrrolo[2,3-b]pyridin-4-yl)-4-piperazin-1-yl-pyrido[3,4-d]pyrimidine]",< 100
4,"CCSc1cc2c(-c3nc(N4CCNCC4)c4c(C5CC5)cncc4n3)ccnc2[nH]1 [Example 134, 5-Cyclopropyl-2-(2-ethylsulfanyl-1H-pyrrolo[2,3-b]pyridin-4-yl)-4-piperazin-1-yl-pyrido[3,4-d]pyrimidine]",< 100
5,"CC1(C)CNCCC1Nc1nc(-c2ccnc(Nc3cc4ccccn4n3)c2)nc2cncc(C3CCC3)c12 (stereo not shown) [Example 136, {5-Cyclobutyl-2-[2-(pyrazolo[1,5-a]pyridin-2-ylamino)-pyridin-4-yl]-pyrido[3,4-d]pyrimidin-4-yl}-(3,3-dimethyl-piperidin-4-yl)-amine]",< 100
6,"CC1(C)CC(Nc2nc(-c3ccnc(Nc4nc(F)c(F)cc4F)c3)nc3cncc(C4CCC4)c23)CCN1 (stereo not shown) [Example 137, {5-Cyclobutyl-2-[2-(3,5,6-trifluoro-pyridin-2-ylamino)-pyridin-4-yl]-pyrido[3,4-d]pyrimidin-4-yl}-(2,2-dimethyl-piperidin-4-yl)-amine]",< 100
7,"CC1(C)CC(Nc2nc(-c3ccnc(Nc4nc(F)ccc4F)c3)nc3cncc(C4CCC4)c23)CCN1 (stereo not shown) [Example 138, {5-Cyclobutyl-2-[2-(3,6-difluoro-pyridin-2-ylamino)-pyridin-4-yl]-pyrido[3,4-d]pyrimidin-4-yl}-(2,2-dimethyl-piperidin-4-yl)-amine]",< 100
8,"Clc1ccc(-c2cc3c(-c4nc(N5CCNCC5)c5c(C6CC6)cncc5n4)ccnc3[nH]2)cc1 [Example 139, 2-[2-(4-Chloro-phenyl)-1H-pyrrolo[2,3-b]pyridin-4-yl]-5-cyclopropyl-4-piperazin-1-yl-pyrido[3,4-d]pyrimidine]",< 100
9,"Clc1ccc(-c2cc3c(-c4nc(N5CCC6NCCC65)c5c(C6CC6)cncc5n4)ccnc3[nH]2)cc1 (stereo not shown) [Example 140, 2-[2-(4-Chloro-phenyl)-1H-pyrrolo[2,3-b]pyridin-4-yl]-5-cyclopropyl-4-(hexahydro-pyrrolo[3,2-b]pyrrol-1-yl)-pyrido[3,4-d]pyrimidine]",< 100
10,"c1ccc2c(c1)[nH]c1nccc(-c3nc(N[C@@H]4CCCNCC4)c4c(C5CCC5)cncc4n3)c12 [Example 141, (R)-Azepan-4-yl-[5-cyclobutyl-2-(9H-pyrido[2,3-b]indol-4-yl)-pyrido[3,4-d]pyrimidin-4-yl]-amine]",< 100
11,"Clc1ccc(Cl)c(-c2cc3c(-c4nc(N5CCC6NCCCC65)c5c(C6CC6)cncc5n4)ccnc3[nH]2)c1 (stereo not shown) [Example 142, 5-Cyclopropyl-2-[2-(2,5-dichloro-phenyl)-1H-pyrrolo[2,3-b]pyridin-4-yl]-4-(octahydro-pyrrolo [3,2-b]pyridin-1-yl)-pyrido[3,4-d]pyrimidine]",< 100
12,"c1ccn2nc(Nc3cc(-c4nc(N5CCC6CNCCC65)c5c(C6CC6)cncc5n4)ccn3)nc2c1 (stereo not shown) [Example 152, {4-[5-Cyclopropyl-4-(octahydro-pyrrolo[3,2-c]pyridin-1-yl)-pyrido [3,4-d]pyrimidin-2-yl]-pyridin-2-yl}-[1,2,4]triazolo[1,5-a] pyridin-2-yl-amine]",1000 to 10000
13,"Cc1cc2c(-c3nc(N[C@H]4CCNCC4(C)C)c4c(C5CC5)cncc4n3)ccnc2[nH]1 [Example 153, [5-Cyclopropyl-2-(2-methyl-1H-pyrrolo[2,3-b]pyridin-4-yl)-pyrido[3,4-d]pyrimidin-4-yl]-((S)-3,3-dimethyl-piperidin-4-yl)-amine]",100 to 1000
14,"Cc1cc2c(-c3nc(N[C@@H]4CCNCC4(C)C)c4c(C5CC5)cncc4n3)ccnc2[nH]1 [Example 154, [5-Cyclopropyl-2-(2-methyl-1H-pyrrolo[2,3-b]pyridin-4-yl)-pyrido[3,4-d]pyrimidin-4-yl]-((R)-3,3-dimethyl-piperidin-4-yl)-amine]",< 100
15,"FC(F)(F)c1cc2c(-c3nc(N4CCOC5CNCC54)c4c(C5CC5)cncc4n3)ccnc2[nH]1 (stereo not shown) [Example 155, 5-Cyclopropyl-4-(hexahydro-pyrrolo[3,4-b] [1,4]oxazin-4-yl)-2-(2-trifluoromethyl-1H-pyrrolo[2,3-b]pyridin-4-yl)-pyrido[3,4-d]pyrimidine]",< 100
16,"CC1(C)CNCCC1Nc1nc(-c2ccnc3[nH]c(-c4ccc(C(N)=O)cc4)cc23)nc2cncc(C3CC3)c12 (stereo not shown) [Example 156, 4-{4-[5-Cyclopropyl-4-(3,3-dimethyl-piperidin-4-ylamino)-pyrido[3,4-d]pyrimidin-2-yl]-1H-pyrrolo[2,3-b]pyridin-2-yl}-benzamide]",< 100
17,"CC1(C)CNCC[C@H]1Nc1nc(-c2ccnc(Nc3nc(F)ccc3F)c2)nc2cncc(C3CC3)c12 [Example 157, {5-Cyclopropyl-2-[2-(3,6-difluoro-pyridin-2-ylamino)-pyridin-4-yl]-pyrido[3,4-d]pyrimidin-4-yl}-((R)-3,3-dimethyl-piperidin-4-yl)-amine]",100 to 1000
18,"CC1(C)CNCC[C@@H]1Nc1nc(-c2ccnc(Nc3nc(F)ccc3F)c2)nc2cncc(C3CC3)c12 [Example 158, {5-Cyclopropyl-2-[2-(3,6-difluoro-pyridin-2-ylamino)-pyridin-4-yl]-pyrido[3,4-d]pyrimidin-4-yl}-((S)-3,3-dimethyl-piperidin-4-yl)-amine]",< 100
19,"Fc1cc(F)c(Nc2cc(-c3nc(NC4CCCNCC4)c4c(C5CCC5)cncc4n3)ccn2)nc1F (stereo not shown) [Example 159, Azepan-4-yl-{5-cyclobutyl-2-[2-(3,5,6-trifluoro-pyridin-2-ylamino)-pyridin-4-yl]-pyrido[3,4-d]pyrimidin-4-yl}-amine]",< 100
20,"Fc1ccc(F)c(Nc2cc(-c3nc(NC4CCCNCC4)c4c(C5CCC5)cncc4n3)ccn2)n1 (stereo not shown) [Example 160, Azepan-4-yl-{5-cyclobutyl-2-[2-(3,6-difluoro-pyridin-2-ylamino)-pyridin-4-yl]-pyrido[3,4-d]pyrimidin-4-yl}-amine]",< 100
21,CC1(C)CNCC[C@@H]1Nc1nc(-c2ccnc3[nH]c4ccccc4c23)nc2cncc(C3CCC3)c12 [Example 200],100 to 1000
22,"Fc1cccc(Nc2cc(-c3nc(N4CCOC5CNCC54)c4c(C5CC5)cncc4n3)ccn2)n1 (stereo not shown) [Example 201, {4-[5-Cyclopropyl-4-(hexahydro-pyrrolo[3,4-b][1,4]oxazin-4-yl)-pyrido[3,4-d]pyrimidin-2-yl]-pyridin-2-yl}-(6-fluoro-pyridin-2-yl)-amine]",< 100
23,"Fc1cc(F)c(Nc2cc(-c3nc(N4CCOC5CNCC54)c4c(C5CC5)cncc4n3)ccn2)nc1F (stereo not shown) [Example 202, {4-[5-Cyclopropyl-4-(hexahydro-pyrrolo[3,4-b][1,4]oxazin-4-yl)-pyrido[3,4-d]pyrimidin-2-yl]-pyridin-2-yl}-(3,5,6-trifluoro-pyridin-2-yl)-amine]",< 100
24,"Fc1ccc(F)c(Nc2cc(-c3nc(N4CCOC5CNCC54)c4c(C5CC5)cncc4n3)ccn2)n1 (stereo not shown) [Example 203, {4-[5-Cyclopropyl-4-(hexahydro-pyrrolo[3,4-b][1,4]oxazin-4-yl)-pyrido[3,4-d]pyrimidin-2-yl]-pyridin-2-yl}-(3,6-difluoro-pyridin-2-yl)-amine]",100 to 1000
25,"CC(C)c1cc(C(C)C)c(S(=O)(=O)Oc2nc(-c3ccnc4[nH]c5ccccc5c34)nc3cncc(C4CCC4)c23)c(C(C)C)c1 [Example 204, 2,4,6-Triisopropyl-benzenesulfonic acid 5-cyclobutyl-2-(9H-pyrido[2,3-b]indol-4-yl)-pyrido[3,4-d]pyrimidin-4-yl ester]",< 100
26,"c1cc(-c2nc(N3CCNCC3)c3c(C4CC4)cncc3n2)cc(Nc2nc3n(n2)CCCC3)n1 [Example 205, [4-(5-Cyclopropyl-4-piperazin-1-yl-pyrido[3,4-d]pyrimidin-2-yl)-pyridin-2-yl]-(5,6,7,8-tetrahydro-[1,2,4]triazolo[1,5-a]pyridin-2-yl)-amine]",< 100
27,"c1ccc2c(c1)[nH]c1nccc(-c3nc(N4CCOC5CNCC54)c4c(C5CCC5)cncc4n3)c12 (stereo not shown) [Example 206, 4-[5-Cyclobutyl-4-(hexahydro-pyrrolo[3,4-b][1,4]oxazin-4-yl)-pyrido[3,4-d]pyrimidin-2-yl]-9H-pyrido[2,3-b]indole]",< 100
28,"Fc1cc(F)c(Nc2cc(-c3nc(NC45CCNCC4C5)c4c(C5CCC5)cncc4n3)ccn2)nc1F (stereo not shown) [Example 208, (3-Aza-bicyclo[4.1.0]hept-6-yl)-{5-cyclobutyl-2-[2-(3,5,6-trifluoro-pyridin-2-ylamino)-pyridin-4-yl]-pyrido[3,4-d]pyrimidin-4-yl}-amine]",< 100
